Laboratory results as given in ChEMBL document CHEMBL4680207, “The discovery, design and synthesis of potent agonists of adenylyl cyclase type 2 by virtual screening combining biological evaluation” (Eur J Med Chem, 2020).
The source made the active and inactive calls. No cut-off for these calls is given here.

What was measured:
Type in all cases: cell-based
Adenylate cyclase type 2 [1] = biological target: T1, Adenylate cyclase type 2 (Homo sapiens, UniProt Q08462); assay: Agonist activity at recombinant human AC2 expressed in HEK293 cells assessed as increase in cAMP level measured after 30 mins by LANCE Ultra cAMP Detection kit method
T1 sequence (Q08462 whole entry): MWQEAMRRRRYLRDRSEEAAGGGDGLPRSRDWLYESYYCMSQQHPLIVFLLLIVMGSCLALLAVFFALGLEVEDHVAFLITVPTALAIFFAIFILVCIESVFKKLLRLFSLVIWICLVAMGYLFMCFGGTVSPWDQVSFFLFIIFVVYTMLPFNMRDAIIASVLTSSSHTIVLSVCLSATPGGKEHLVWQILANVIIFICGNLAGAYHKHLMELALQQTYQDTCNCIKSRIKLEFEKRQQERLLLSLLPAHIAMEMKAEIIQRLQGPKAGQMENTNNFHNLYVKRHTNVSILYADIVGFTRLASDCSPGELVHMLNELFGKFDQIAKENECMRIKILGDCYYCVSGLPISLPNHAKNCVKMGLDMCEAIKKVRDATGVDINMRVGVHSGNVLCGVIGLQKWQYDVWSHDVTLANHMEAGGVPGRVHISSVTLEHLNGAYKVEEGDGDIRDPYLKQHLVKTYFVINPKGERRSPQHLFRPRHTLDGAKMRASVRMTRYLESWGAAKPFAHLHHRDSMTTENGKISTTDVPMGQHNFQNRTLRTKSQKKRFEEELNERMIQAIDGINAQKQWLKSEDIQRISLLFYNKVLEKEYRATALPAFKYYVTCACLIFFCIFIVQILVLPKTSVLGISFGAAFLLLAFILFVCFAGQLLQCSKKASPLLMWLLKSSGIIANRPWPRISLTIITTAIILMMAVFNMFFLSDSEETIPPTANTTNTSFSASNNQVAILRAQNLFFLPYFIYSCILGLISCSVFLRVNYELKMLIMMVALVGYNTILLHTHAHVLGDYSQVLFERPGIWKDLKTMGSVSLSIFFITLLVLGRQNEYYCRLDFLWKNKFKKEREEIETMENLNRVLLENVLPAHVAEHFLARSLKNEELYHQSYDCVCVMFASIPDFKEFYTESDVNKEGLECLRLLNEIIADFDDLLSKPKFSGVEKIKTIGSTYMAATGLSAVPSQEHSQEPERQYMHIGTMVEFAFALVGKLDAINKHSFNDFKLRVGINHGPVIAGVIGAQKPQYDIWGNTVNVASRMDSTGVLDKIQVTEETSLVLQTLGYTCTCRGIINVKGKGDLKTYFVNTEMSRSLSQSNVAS

Adenylate cyclase type 1 = Adenylate cyclase type 1 (Homo sapiens, UniProt Q08828); assay: Agonist activity at recombinant human AC1 expressed in HEK293 cells assessed as increase in cAMP level at 50 uM measured after 30 mins by LANCE Ultra cAMP Detection kit method; settings: hek293, 0.5 h
Sequence of Adenylate cyclase type 1 (Q08828 whole entry): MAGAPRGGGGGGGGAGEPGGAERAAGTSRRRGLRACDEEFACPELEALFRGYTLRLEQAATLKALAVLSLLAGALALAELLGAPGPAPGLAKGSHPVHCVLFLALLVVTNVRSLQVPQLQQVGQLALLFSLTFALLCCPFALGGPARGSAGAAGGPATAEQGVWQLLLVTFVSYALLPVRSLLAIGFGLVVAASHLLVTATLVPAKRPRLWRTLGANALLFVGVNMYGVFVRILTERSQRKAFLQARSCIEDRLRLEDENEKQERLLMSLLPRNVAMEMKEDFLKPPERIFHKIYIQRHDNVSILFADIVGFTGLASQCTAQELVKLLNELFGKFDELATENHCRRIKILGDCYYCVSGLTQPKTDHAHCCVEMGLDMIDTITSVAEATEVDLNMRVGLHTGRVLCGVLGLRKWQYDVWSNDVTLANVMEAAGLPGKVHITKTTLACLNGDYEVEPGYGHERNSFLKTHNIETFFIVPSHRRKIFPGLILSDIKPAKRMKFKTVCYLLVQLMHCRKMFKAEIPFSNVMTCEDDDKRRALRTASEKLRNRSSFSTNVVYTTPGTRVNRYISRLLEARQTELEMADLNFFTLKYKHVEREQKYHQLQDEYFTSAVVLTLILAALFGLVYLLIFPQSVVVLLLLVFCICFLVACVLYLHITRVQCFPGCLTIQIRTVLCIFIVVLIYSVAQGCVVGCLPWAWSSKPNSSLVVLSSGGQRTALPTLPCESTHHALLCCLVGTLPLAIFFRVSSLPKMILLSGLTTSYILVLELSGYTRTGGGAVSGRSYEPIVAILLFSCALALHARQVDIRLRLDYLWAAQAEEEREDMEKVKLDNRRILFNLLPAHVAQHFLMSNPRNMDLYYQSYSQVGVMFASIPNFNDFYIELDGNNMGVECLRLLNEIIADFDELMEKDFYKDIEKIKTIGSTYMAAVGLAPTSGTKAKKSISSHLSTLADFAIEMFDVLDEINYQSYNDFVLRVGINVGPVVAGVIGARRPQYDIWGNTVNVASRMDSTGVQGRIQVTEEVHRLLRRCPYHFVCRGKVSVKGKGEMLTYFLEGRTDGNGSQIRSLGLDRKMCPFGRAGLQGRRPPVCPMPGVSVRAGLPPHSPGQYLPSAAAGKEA

Adenylate cyclase type 5 = Adenylate cyclase type 5 (Homo sapiens, UniProt O95622); assay: Agonist activity at recombinant human AC5 expressed in HEK293 cells assessed as increase in cAMP level at 50 uM measured after 30 mins by LANCE Ultra cAMP Detection kit method; settings: hek293, 0.5 h
Sequence of Adenylate cyclase type 5 (O95622 whole entry): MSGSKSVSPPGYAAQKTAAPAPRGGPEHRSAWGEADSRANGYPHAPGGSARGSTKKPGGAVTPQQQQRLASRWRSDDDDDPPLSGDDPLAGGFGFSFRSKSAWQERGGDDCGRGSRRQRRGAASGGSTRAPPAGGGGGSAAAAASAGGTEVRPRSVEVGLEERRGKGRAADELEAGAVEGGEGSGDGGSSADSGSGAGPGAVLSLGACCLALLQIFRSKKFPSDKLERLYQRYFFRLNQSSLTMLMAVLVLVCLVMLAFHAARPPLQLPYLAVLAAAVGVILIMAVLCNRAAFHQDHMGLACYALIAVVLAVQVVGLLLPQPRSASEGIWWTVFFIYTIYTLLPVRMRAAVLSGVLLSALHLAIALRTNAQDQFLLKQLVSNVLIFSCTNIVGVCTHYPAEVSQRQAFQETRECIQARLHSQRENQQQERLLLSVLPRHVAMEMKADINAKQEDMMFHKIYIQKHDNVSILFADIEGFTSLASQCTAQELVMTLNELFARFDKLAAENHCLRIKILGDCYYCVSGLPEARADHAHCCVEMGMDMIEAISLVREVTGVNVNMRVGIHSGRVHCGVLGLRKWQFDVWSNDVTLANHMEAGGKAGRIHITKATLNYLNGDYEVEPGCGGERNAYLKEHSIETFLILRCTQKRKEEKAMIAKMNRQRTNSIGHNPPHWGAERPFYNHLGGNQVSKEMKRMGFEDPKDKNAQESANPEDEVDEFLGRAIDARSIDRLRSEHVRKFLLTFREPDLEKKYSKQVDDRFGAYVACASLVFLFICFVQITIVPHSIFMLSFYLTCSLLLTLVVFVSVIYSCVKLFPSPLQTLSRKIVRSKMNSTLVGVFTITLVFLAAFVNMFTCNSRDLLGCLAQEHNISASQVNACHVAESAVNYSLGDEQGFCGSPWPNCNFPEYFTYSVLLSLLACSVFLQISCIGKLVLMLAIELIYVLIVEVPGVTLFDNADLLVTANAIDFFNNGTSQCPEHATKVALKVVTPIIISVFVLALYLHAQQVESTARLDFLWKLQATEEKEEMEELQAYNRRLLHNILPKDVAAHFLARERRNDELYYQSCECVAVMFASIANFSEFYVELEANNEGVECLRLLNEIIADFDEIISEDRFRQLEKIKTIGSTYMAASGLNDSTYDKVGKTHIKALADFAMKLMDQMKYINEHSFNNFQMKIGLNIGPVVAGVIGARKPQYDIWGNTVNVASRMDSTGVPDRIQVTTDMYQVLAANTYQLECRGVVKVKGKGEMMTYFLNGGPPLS

Adenylate cyclase type 8 = Adenylate cyclase type 8 (Homo sapiens, UniProt P40145); assay: Agonist activity at recombinant human AC8 expressed in HEK293 cells assessed as increase in cAMP level at 50 uM measured after 30 mins by LANCE Ultra cAMP Detection kit method; settings: hek293, 0.5 h
Sequence of Adenylate cyclase type 8 (P40145 whole entry): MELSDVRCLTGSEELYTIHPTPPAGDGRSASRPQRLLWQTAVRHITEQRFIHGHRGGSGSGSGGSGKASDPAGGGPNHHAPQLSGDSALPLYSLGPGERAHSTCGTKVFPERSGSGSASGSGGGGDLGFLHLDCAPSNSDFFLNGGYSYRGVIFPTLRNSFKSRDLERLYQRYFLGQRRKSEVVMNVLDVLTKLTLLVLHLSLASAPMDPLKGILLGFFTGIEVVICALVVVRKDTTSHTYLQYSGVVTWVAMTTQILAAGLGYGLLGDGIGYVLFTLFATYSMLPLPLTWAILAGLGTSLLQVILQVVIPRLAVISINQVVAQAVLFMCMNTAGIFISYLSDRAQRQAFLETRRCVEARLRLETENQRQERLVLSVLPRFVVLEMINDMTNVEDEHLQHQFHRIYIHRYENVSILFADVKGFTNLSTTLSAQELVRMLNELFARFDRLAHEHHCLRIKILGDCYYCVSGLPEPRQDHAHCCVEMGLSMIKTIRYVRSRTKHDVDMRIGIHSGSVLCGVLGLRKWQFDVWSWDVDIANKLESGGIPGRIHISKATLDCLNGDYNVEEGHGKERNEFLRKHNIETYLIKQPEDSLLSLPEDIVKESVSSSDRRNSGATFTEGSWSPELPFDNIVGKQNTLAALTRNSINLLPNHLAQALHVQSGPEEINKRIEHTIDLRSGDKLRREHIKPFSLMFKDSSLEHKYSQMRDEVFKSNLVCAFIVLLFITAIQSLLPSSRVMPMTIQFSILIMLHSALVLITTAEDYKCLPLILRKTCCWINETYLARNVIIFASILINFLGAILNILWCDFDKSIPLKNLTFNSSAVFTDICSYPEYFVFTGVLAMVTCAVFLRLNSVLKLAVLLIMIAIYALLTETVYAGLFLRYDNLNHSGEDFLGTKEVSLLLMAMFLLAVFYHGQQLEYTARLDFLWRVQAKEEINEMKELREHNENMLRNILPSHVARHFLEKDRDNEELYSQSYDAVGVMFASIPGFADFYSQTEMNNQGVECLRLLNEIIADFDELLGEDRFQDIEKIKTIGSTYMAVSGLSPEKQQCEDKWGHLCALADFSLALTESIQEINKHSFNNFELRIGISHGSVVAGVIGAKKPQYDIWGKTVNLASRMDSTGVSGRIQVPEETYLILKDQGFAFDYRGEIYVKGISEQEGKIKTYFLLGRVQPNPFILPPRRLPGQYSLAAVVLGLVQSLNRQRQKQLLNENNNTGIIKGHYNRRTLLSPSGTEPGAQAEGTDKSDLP

Adenylate cyclase type 2 [2] = biological target: T1, Adenylate cyclase type 2; assay: Agonist activity at recombinant human AC2 expressed in HEK293 cells assessed as increase in cAMP level by measuring cAMP level at 50 uM measured after 30 mins by LANCE Ultra cAMP Detection kit method relative to control; settings: filed as agonist
Adenylate cyclase type 2 [3] = biological target: T1, Adenylate cyclase type 2; assay: Potency index, ratio of forskolin EC50 to test compound EC50 for agonist activity at recombinant human AC2 expressed in HEK293 cells assessed as increase in cAMP level
Adenylate cyclase type 2 [4] = biological target: T1, Adenylate cyclase type 2; assay: Agonist activity at recombinant human AC2 expressed in HEK293 cells assessed as reduction in IL6 level by measuring IL6 level at 50 uM measured after 24 hrs by ELISA relative to control; design: scale not given: the % may be the effect or the level left
Adenylate cyclase type 2 [5] = biological target: T1, Adenylate cyclase type 2; assay: Agonist activity at recombinant human AC2 expressed in HEK293 cells assessed as increase in cAMP level at 50 uM measured after 30 mins by LANCE Ultra cAMP Detection kit method; settings: filed as agonist

SMILES	EC50 (Adenylate cyclase type 2 [1])	Activity (Adenylate cyclase type 2 [2])	further results
Cc1ccc([C@H]2OC3(C(=O)c4ccc(Br)cc4C3=O)[C@H]3C(=O)N(c4ccccc4Cl)C(=O)[C@@H]23)cc1 (stereo partly specified)	0.09 µM	87.8%	Activity (Adenylate cyclase type 1): Not Active; Activity (Adenylate cyclase type 5): Not Active; Activity (Adenylate cyclase type 8): Not Active; Ratio EC50 (Adenylate cyclase type 2 [3]): 160; Activity (Adenylate cyclase type 2 [4]): 37.1%
CCOC(=O)C1(Cc2ccc(Cl)cc2Cl)C(=O)Nc2ccccc21 (stereo unspecified)	–	–	Activity (Adenylate cyclase type 8): Active
O=C1[C@H]2[C@@H](c3ccccc3)OC3(C(=O)c4ccccc4C3=O)[C@H]2C(=O)N1c1cccc(Cl)c1	8.1 µM	103%	Activity (Adenylate cyclase type 2 [5]): Active; Activity (Adenylate cyclase type 2 [1]; filed as agonist): Dose-dependent effect
O=C1[C@H]2[C@@H](c3ccc(Cl)cc3)OC3(C(=O)c4ccccc4C3=O)[C@H]2C(=O)N1c1cccc(F)c1	3.53 µM	99.9%	–
Cc1ccc(N2C(=O)[C@H]3[C@@H](c4cccc(Cl)c4)OC4(C(=O)c5ccccc5C4=O)[C@H]3C2=O)cc1	5.05 µM	97.9%	–
Cc1ccc([C@H]2OC3(C(=O)c4ccccc4C3=O)[C@H]3C(=O)N(c4ccc(C)c(Cl)c4)C(=O)[C@@H]23)cc1	0.75 µM	96.4%	–
CCOc1ccc([C@H]2OC3(C(=O)c4ccccc4C3=O)[C@H]3C(=O)N(c4ccc(C)cc4)C(=O)[C@@H]23)cc1	24.8 µM	100%	–
Cc1ccc(Cl)cc1N1C(=O)[C@H]2[C@@H](c3ccccc3)OC3(C(=O)c4ccccc4C3=O)[C@H]2C1=O	3.12 µM	101%	–
Cc1ccc([C@H]2OC3(C(=O)c4ccccc4C3=O)[C@H]3C(=O)N(c4ccc(C)cc4F)C(=O)[C@@H]23)cc1	0.77 µM	107%	–
Cc1ccc([C@H]2OC3(C(=O)c4ccccc4C3=O)[C@H]3C(=O)N(C4CCCC4)C(=O)[C@@H]23)cc1	3.44 µM	64.9%	–
Cc1ccc([C@H]2OC3(C(=O)c4ccccc4C3=O)[C@H]3C(=O)N(C(C)C)C(=O)[C@@H]23)cc1	7.34 µM	59%	–
Cc1ccc([C@H]2OC3(C(=O)c4ccccc4C3=O)[C@H]3C(=O)N(c4ccc(F)cc4)C(=O)[C@@H]23)cc1	1.64 µM	99.5%	–
O=C1[C@H]2[C@@H](c3ccc(Cl)cc3)OC3(C(=O)c4ccccc4C3=O)[C@H]2C(=O)N1c1ccc(F)cc1	0.53 µM	100%	–
COc1ccc(N2C(=O)[C@H]3[C@@H](c4ccc(C)cc4)OC4(C(=O)c5ccccc5C4=O)[C@H]3C2=O)cc1	17.1 µM	93.6%	–
CCOc1ccc(N2C(=O)[C@H]3[C@@H](c4ccc(F)cc4)OC4(C(=O)c5ccccc5C4=O)[C@H]3C2=O)cc1	39.3 µM	91%	–
